The text below walks through data of patent US20110086802A1, “METHODS TO INCREASE PERMEABILITY OF CORNEAL EPITHELIUM AND DESTABILIZE STROMAL COLLAGEN FIBRIL NETWORK” (priority 2008, published 2011).

The test system of data set [1] is feline cornea. Briefly: Corneal Hysteresis, Feline Study #1 (Reichert Ocular Response Analyzer). It counts as in vivo, cat. More on the design: Corneal Hysteresis (CH): unit not given here. As to the method: Cats were placed in three treatment groups. One eye from two cats were untreated controls. All treatment solutions were administered using an applicator to localize exposure to the central corneal surface. The applicator used to apply solutions to the corneal surface was similar in design to that described in the co-pending provisional application entitled “APPARATUS TO IMPROVE LOCALIZED CONCENTRATION OF FLUIDS IN OCULAR ENVIRONMENTS” to Bruce DeWoolfson and Michael Luttrell, provisional application No. 61/064,731, filed Mar. 24, 2008, incorporated herein by reference in its entirety. Two eyes was treated with Proparacaine HCl, followed by treatment with 0.5M sodium phosphate buffer (pH 8.35), then with 3 mg of glutaric anhydride dissolved in 0.6 mL of sodium phosphate buffer, then with sodium phosphate buffer, followed by 1.5 μL of acetic anhydride diluted in 0.6 mL of sodium phosphate buffer, a second treatment with 1.5 μL of acetic anhydride in 0.6 mL of sodium phosphate buffer, a buffer rinse and finally treatment with 0.6 mL of human recombinant decorin (4.47 mg/mL).
Two eyes were treated as above but without a final treatment with decorin solution. All eyes were clinically evaluated immediately post-treatment. Three days following treatment, eyes were enucleated and the corneas removed, placed in formalin containing Cupromeronic blue.
Measurements of Corneal Hysteresis (CH) in the animals treated in Example 2. Corneal Hysteresis is a measure of the biomechanical strength of the cornea and is measured using the Reichert Ocular Response Analyzer. The Reichert Ocular Response Analyzer utilizes a dynamic bi-directional applanation process to measure the biomechanical properties of the cornea and the Intraocular Pressure of the eye. The basic output of the measurement process is a Goldmann-correlated pressure measurement (IOPG), and a new measure of corneal tissue properties called Corneal Hysteresis (CH).

The test system of data set [2] is epithelial cell junctures of human donor corneal tissue. Put plainly: Confocal microscopy of fluorescent-tagged decorin penetration into donor cornea. The settings on record: for disruption of epithelial cell junctures permitting diffusion of human recombinant decorin: human donor cornea, agent applied 30 seconds to central cornea by applicator before fluorescent-tagged decorin. It counts as in vitro ADME. From the text: Confocal Microscopy of glutaric anhydride treated cornea. Four donor corneas were obtained from Insight Biomed (Minneapolis, Minn.). All cornea tested negative for viral contamination. Corneas were rejected for transplantation due to storage expiration, low endothelial cell counts or other factors not related to epithelial cell integrity and stromal structure. All corneas were examined by slit-lamp microscopy for epithelial cell integrity. Corneas were stored in Optisol (Bausch & Lomb) for storage. Confocal microscopy was conducted at the Department of Surgical Research, Dartmouth-Hitchcock Medical Center, Lebanon, N.H. Two corneas were untreated controls and two were treated with glutaric anhydride followed by application of fluorescent-tagged human recombinant decorin. […] Fluorescent-tagged decorin was prepared by reacting decorin with Oregon Green 488 using a labeling kit from Molecular Probes.
All corneas were placed on a convex silicone pad and secured with pins. This allowed exposure to the corneal surface in a fixed position. All treatment solutions were administered using an applicator to localize exposure to the central corneal surface. Control cornea were treated with Proparacaine HCl for 1 minute followed by treatment with 0.5 mL of 0.2M sodium phosphate buffer (pH 8.3-8.5) for 30 seconds, 0.5 mL of saline rinse for 30 seconds, and then 0.1 mL of fluorescent-tagged human recombinant decorin. T reated cornea were treated with Proparacaine HCl for 1 minute, followed by treatment with 0.5 mL of 0.2M sodium phosphate buffer (pH 8.3-8.5) for 30 seconds, glutaric anhydride (dissolved immediately before application in sodium phosphate buffer (pH 8.3-8.5) at 5 mg/mL) for 30 seconds, saline rinsed, and then treated with 0.1 mL of fluorescent-tagged human recombinant decorin. Control and treated corneas were examined for decorin diffusion into the stroma using the Zeis confocal microscope (Model LSM 510 Meta; C apo 40×, NA=1.2, Thornwood, N.Y.).
Confocal Microscopy of acetic anhydride treated cornea. The protocol was the same as that described above for glutaric anhydride treatment. All treatment solutions were administered using an applicator to localize exposure to the central corneal surface. The applicator used to apply solutions to the corneal surface was similar in design to that described in the co-pending provisional application entitled “APPARATUS TO IMPROVE LOCALIZED CONCENTRATION OF FLUIDS IN OCULAR ENVIRONMENTS” to Bruce DeWoolfson and Michael Luttrell, provisional application No. 61/064,731, filed Mar. 24, 2008, incorporated herein by reference in its entirety. Control cornea were treated with Proparacaine HCl for 1 minute followed by treatment with 0.5 mL of 0.2M sodium phosphate buffer (pH 8.3-8.5) for 30 seconds, 0.5 mL of saline rinse for 30 seconds, and then 0.1 mL of fluorescent-tagged human recombinant decorin. Treated cornea were treated with Proparacaine HCl for 1 minute, followed by treatment with 0.5 mL of 0.3M sodium phosphate buffer (pH 8.3-8.5) for 30 seconds, acetic anhydride (3 μL) (diluted with 0.3M sodium phosphate buffer (pH 8.3-8.5) immediately before application) for 30 seconds, saline rinsed, and then treatment with 0.1 mL of fluorescent-tagged human recombinant decorin. Control and treated corneas were examined for decorin diffusion into the stroma using the Zeis confocal microscope (Model LSM 510 Meta; C apo 40×, NA=1.2, Thornwood, N.Y.).

The subject of data set [3] is feline cornea. Briefly: Corneal Hysteresis, Feline Study #2 (Reichert Ocular Response Analyzer). The format is in vivo, cat. The arrangement: Corneal Hysteresis (CH): unit not given here. The protocol: A second study was conducted to examine the effects of acylation on “softening” or destabilizing corneal structural integrity using the Reichert Ocular Response Analyzer. Five subject animals were included in this study. One eye of each animal was treated with the contralateral eye serving as the control. For three animal subjects treatment eyes were evaluated for corneal hysteresis using the Reichert Ocular Response Analyzer before treatment and then after treatment with Proparacaine HCL, acetic anhydride diluted in sodium phosphate solution at a pH of 8.3-8.5, and decorin. For two animal subjects, no acylation agent was applied to the cornea. Instead, a 4 mm trephine was used to penetrate the corneal epithelium to provide a track for decorin penetration. Corneal hysteresis results are shown below in Table 2.

Another data set has as its system corneal epithelium. The settings on record: cited from earlier work.
In the next data set the test system is stromal collagen fibers. Briefly: Transmission electron microscopy of decorin-treated cat cornea (first study). The settings on record: cat eyes exposed to 50 μg decorin for 1, 3 or 5 days, no applicator; versus control cornea. The format is in vivo. The protocol:
The following study was conducted at the Department of Surgical Research, Dartmouth-Hitchcock Medical Center, Lebanon, N.H. Five adult female cats were included in the study. All animals procured from Liberty Laboratories and were identified by ear tattoo. Ocular toxicity was determined by slit-lamp examination and measurement of endothelial cell structure. Decorin penetration into the corneal stroma was determined utilizing transmission electron microscopy. Cornea treated with decorin were reacted with Quinolinic Blue Stain (Cupromeronic blue) in buffered formalin. This reagent stains small proteoglycan structures such as decorin.
Cats were placed in three treatment groups. One eye from each group was treated with decorin. Three eyes were controls. Treated eyes were exposed to 50 μg of decorin for 1 day, 3 days or 5 days. Decorin solution was administered to the corneal using a sterile transfer pipet. An applicator was not used to localize the solution to the central corneal surface. All eyes were clinically evaluated immediately post-treatment and at days 2, 3, 5, and 8. One month after final treatment, eyes were reexamined and then enucleated. Each eye was sectioned. One half was placed in Formalin for subsequent histological analysis. The other half was again divided in half, one half prepared for Transmission Electron Microscopy. […]

Setting [4] is: Animal IBT4 treated eye, after the named step of the sequence Proparacaine, GA, AA #1, AA #2, decorin, Initial 4.0.
The mark [5] stands for this setting: Animal QKU8 treated eye, no decorin, after the named step of the sequence, Initial 7.0.
Where [6] appears, read: Animal QKU8 treated eye, after the named step of the sequence, Initial 6.4.
Setting [7] is: Animal QNO6 treated eye, no decorin, after the named step of the sequence, Initial 6.3.
The mark [8] stands for this setting: Animal AHH3, after the named step of Proparacaine HCL, acetic anhydride, decorin, Initial 8.75.
The mark [9] stands for this setting: Animal QJD4, after the named step of Proparacaine HCL, acetic anhydride, decorin, Initial 6.9.
The mark [10] stands for this setting: Animal RAF6, after the named step of Proparacaine HCL, acetic anhydride, decorin, Initial 5.88.

Counter-ions that a name gives are not always drawn.

Regarding `CCCOc1ccc(C(=O)OCCN(CC)CC)cc1N` [Proparacaine, Proparacaine HCl, reference compound], the “Corneal Hysteresis (CH)” value in the data set with feline cornea [1] (setting [4]) came out at 7.0; in the data set with feline cornea [1] (setting [5]), 7.5; in the data set on feline cornea [1] (setting [6]), 8.0; in the data set on feline cornea [1] (setting [7]) it was 7.0.
On to `CC(=O)OC(C)=O` [acetic anhydride], for which the “Corneal Hysteresis (CH)” value in the data set on feline cornea [1] (Animal IBT4 treated eye, Post-AA #2 (second acetic anhydride treatment), Initial 4.0) is 3.9; with feline cornea [1] (setting [4]), 3.2; in the data set on feline cornea [1] (setting [5]) it was 5.7; with feline cornea [1] (Animal QKU8 treated eye, Post-AA #2, Initial 6.4), 6.7; in the data set with feline cornea [1] (Animal QKU8 treated eye, Post-AA #2, Initial 7.0), 4.8; with feline cornea [1] (setting [6]), 7.0. The “Corneal Hysteresis (CH)” value is given as 5.7 in the data set with feline cornea [1] (setting [7]); 3.8 with feline cornea [1] (Animal QNO6 treated eye, Post-AA #2, Initial 6.3); 5.73 with feline cornea [3] (setting [8]); 3.9 in the data set with feline cornea [3] (setting [9]); 4.15 in the data set on feline cornea [3] (setting [10]). Besides, the “disruption of epithelial cell junctures permitting diffusion of human recombinant decorin” value in data set [2] was “successfully disrupted the epithelial cell junctures”.
With `C[C@@H]1CC[C@@]2(OC1)O[C@H]1[C@@H](O)[C@H]3[C@@H]4CC[C@H]5C[C@@H](O[C@@H]6O[C@H](CO)[C@H](O[C@@H]7O[C@H](CO)[C@@H](O)[C@H](O[C@@H]8OC[C@@H](O)[C@H](O)[C@H]8O)[C@H]7O[C@@H]7O[C@H](CO)[C@H](O)[C@H](O[C@@H]8O[C@H](CO)[C@@H](O)[C@H](O)[C@H]8O)[C@H]7O)[C@H](O)[C@H]6O)[C@H](O)C[C@]5(C)[C@H]4CC[C@]3(C)[C@H]1[C@@H]2C` [digitonin], in the data set with corneal epithelium (Shih and Lee), the “effect of pretreating cornea on drug penetration” value is “enhance penetration of timolol” and the “effect of pretreating cornea on epithelium layers” value is given as “exfoliate the top 2 layers of epithelium”.
For `O=C1CCCC(=O)O1` [glutaric anhydride], the “Corneal Hysteresis (CH)” value was 3.3 with feline cornea [1] (setting [4]), 6.4 with feline cornea [1] (setting [5]), 5.3 in the data set with feline cornea [1] (setting [6]) and 6.4 in the data set on feline cornea [1] (setting [7]). In data set [2], the “disruption of epithelial cell junctures permitting diffusion of human recombinant decorin” value is listed as “successfully disrupted the epithelial cell junctures”.
Regarding cetylpyridium chloride, the “effect on corneal epithelium” value in the data set with corneal epithelium (0.02%, Godbey) is “disrupted the top layers of epithelial cells”.

B1: human recombinant decorin: Human recombinant Decorin prepared from CHO-S cells, MW approximately 40,000 daltons; stabilization molecule (small leucine-rich proteoglycan) (protein, UniProt P07585 31-359, looked up)
Decorin: DEASGIGPEVPDDRDFEPSLGPVCPFRCQCHLRVVQCSDLGLDKVPKDLPPDTTLLDLQNNKITEIKDGDFKNLKNLHALILVNNKISKVSPGAFTPLVKLERLYLSKNQLKELPEKMPKTLQELRAHENEITKVRKVTFNGLNQMIVIELGTNPLKSSGIENGAFQGMKKLSYIRIADTNITSIPQGLPPSLTELHLDGNKISRVDAASLKGLNNLAKLGLSFNSISAVDNGSLANTPHLRELHLDNNKLTRVPGGLAEHKYIQVVYLHNNNISVVGSSDFCPPGHNTKKASYSGVSLFSNPVQYWEIQPSTFRCVYVRSAIQLGNYK
Turning to B1, the “Corneal Hysteresis (CH)” value in the data set on feline cornea [1] (setting [4]) is recorded as 4.6; in the data set with feline cornea [1] (setting [6]), 7.9; with feline cornea [3] (setting [8]) it was 7.3; in the data set with feline cornea [3] (Animal BEA4, no acylation agent, 4 mm trephine through epithelium, Initial 3.65) it was 4.8; in the data set on feline cornea [3] (Animal IRH6, no acylation agent, 4 mm trephine through epithelium, Initial 7.98) it was 8.03; in the data set with feline cornea [3] (setting [9]) it was 6.3. The “Corneal Hysteresis (CH)” value in the data set on feline cornea [3] (setting [10]) is recorded as 5.18. In addition, the “change of corneal hysteresis (CH), in words” value in the data set with feline cornea [1] (Feline Study #1, sequential acylation then decorin) is given as “increased CH values to levels greater than initial values”. In addition, the “decorin penetration into cornea” value in data set [2] (control cornea, epithelial cell junctures not disrupted, applied directly to central cornea) is on record as “limited to the epithelium”; in data set [2] (cornea pretreated with acetic anhydride (3 μL) for 30 seconds) it was “penetrated the corneal stroma”; in data set [2] (cornea pretreated with glutaric anhydride 5 mg/mL for 30 seconds), “penetrated the corneal stroma”. Besides, the “change of CH values, in words” value with feline cornea [3] (Feline Study #2, acylation agent treated cornea) is on record as “increased CH values”; in the data set with feline cornea [3] (Feline Study #2, trephined but not acylation agent treated cornea), “minimal increase in CH values”. The “molecular bridges (links between fibers) between collagen fibers, TEM” value with stromal collagen fibers is listed as “increase in molecular bridges”.
